Assays:
[1] = test system: ABUTH (Velvetleaf); assay: Postemergence herbicidal evaluation; assay type: in vivo, Abutilon theophrasti; settings: postemergence
Outline: (§1)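 Scores (0–9) reflect plant stand, vigor, malformation, size, chlorosis and general appearance relative to control, read 4 to 5 weeks after treatment and averaged where tests were repeated. Application: about 0.0156–0.500 kg/ha sprayed at 40 psi onto two-week seedlings.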

[2] = test system: AMBEL (Ragweed, Common); assay: Postemergence herbicidal evaluation; assay type: in vivo, Ambrosia artemisifolia; settings: postemergence
Outline: as §1

[3] = test system: ECHCG (Barnyardgrass); assay: Postemergence herbicidal evaluation; assay type: in vivo, Echinochloa crus-galli; settings: postemergence
Outline: as §1

[4] = test system: SETVI (Foxtail, Green); assay: Postemergence herbicidal evaluation; assay type: in vivo, Setaria viridis; settings: postemergence
Outline: as §1

[5] = test system: GLXMAW (Soybean, Williams); assay: Postemergence herbicidal evaluation; assay type: in vivo, Glycine max, (L.) Merr. cv Williams; settings: postemergence
Outline: as §1

[6] = test system: ORYSAT (Rice, Tebonnet); assay: Postemergence herbicidal evaluation; assay type: in vivo, Oryza sativa, (L.) Tebonnet; settings: postemergence
Outline: as §1

[7] = test system: TRZAWR (Wheat, Winter, cv Riband); assay: Postemergence herbicidal evaluation; assay type: in vivo, Triticum aestivum; settings: postemergence
Outline: as §1

[8] = test system: ABUTH (Velvetleaf); assay: Preemergence herbicidal evaluation; assay type: in vivo, Abutilon theophrasti; settings: rated 4-5 weeks after treatment
Outline: (§2)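 Steps: mix seeds into potting soil; plant atop ~1 inch soil; spray compound in aqueous acetone (~0.0156-0.500 kg/ha equivalent); maintain in greenhouse with watering; rate visually 0-9 versus control at 4-5 weeks.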

[9] = test system: CASOB (Sicklepod); assay: Preemergence herbicidal evaluation; assay type: in vivo, Cassia obtusifolia; settings: rated 4-5 weeks after treatment
Outline: as §2

[10] = test system: SETVI (Foxtail, Green); assay: Preemergence herbicidal evaluation; assay type: in vivo, Setaria viridis; settings: rated 4-5 weeks after treatment
Outline: as §2

[11] = test system: MOOVA (Monochoria); assay: Preemergence weed control under flooded paddy conditions; assay type: in vivo, Monochoria vaginalis; settings: rated 3-4 weeks after treatment
Outline: (§3)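 Seeds or propagules sown in top 0.5 cm of silt loam soil, flooded 1.5 to 3 cm above surface throughout. Compound in 50/50 v/v aqueous/acetone pipetted into flood water at about 0.0313 to 0.500 kg/ha. Visual 0-9 rating versus control after three to four weeks in greenhouse.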

[12] = test system: SAGPY (Arrowhead (Pygmaea)); assay: as above; assay type: in vivo, Sagittaria pygmaea; settings: rated 3-4 weeks after treatment
Outline: as §3

[13] = test system: CYPIR (Rice Flatsedge); assay: Postemergence weed control under flooded paddy conditions; assay type: in vivo, Cyperus iria; settings: postemergence weeds, rated 3 to 4 weeks after treatment
Outline: (§4)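 Flood-water application, about 0.0313–0.500 kg/ha a.i. in aqueous/acetone 50/50 v/v; water depth 1.5–3 cm throughout. Weeds 3–5 cm, rice 1.5–2.5 leaf. Greenhouse; 0–9 visual rating vs control at 3–4 wk.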

[14] = test system: SAGPY (Arrowhead (Pygmaea)); assay: as above; assay type: in vivo, Sagittaria pygmaea; settings: postemergence weeds, rated 3 to 4 weeks after treatment
Outline: as §4

## C=CCOC(=O)CC1SC(=Nc2cc(-n3c(=O)cc(C(F)(F)F)n(C)c3=O)c(F)cc2Cl)N(CC=C)C1=O (stereo not shown) [Compound 65, Allyl 3-allyl-2-{(2-chloro-5-[3,6-dihydro-3-methyl-2,6-dioxo-4-(trifluoromethyl)-1(2H)-pyrimidinyl]-4-fluorophenyl}imino}-4-oxo-5-thiazolidineacetate]
[1]; rate 0.0158 kg/ha
  ABUTH herbicidal rating: 9.0
[1]; rate 0.0315 kg/ha
  ABUTH herbicidal rating: 9.0
[1]; rate 0.0630 kg/ha
  ABUTH herbicidal rating: 9.0
[2]; rate 0.0158 kg/ha
  AMBEL herbicidal rating: 9.0
[2]; rate 0.0315 kg/ha
  AMBEL herbicidal rating: 7.0
[2]; rate 0.0630 kg/ha
  AMBEL herbicidal rating: 9.0
[3]; rate 0.0158 kg/ha
  ECHCG herbicidal rating: 3.0
[3]; rate 0.0315 kg/ha
  ECHCG herbicidal rating: 7.0
[3]; rate 0.0630 kg/ha
  ECHCG herbicidal rating: 7.0
[4]; rate 0.0158 kg/ha
  SETVI herbicidal rating: 7.0
[4]; rate 0.0315 kg/ha
  SETVI herbicidal rating: 7.0
[4]; rate 0.0630 kg/ha
  SETVI herbicidal rating: 9.0
[5]; rate 0.0158 kg/ha
  GLXMAW herbicidal rating: 7.5
[5]; rate 0.0315 kg/ha
  GLXMAW herbicidal rating: 8.0
[5]; rate 0.0630 kg/ha
  GLXMAW herbicidal rating: 7.5
[6]; rate 0.0158 kg/ha
  ORYSAT herbicidal rating: 4.0
[6]; rate 0.0315 kg/ha
  ORYSAT herbicidal rating: 6.0
[6]; rate 0.0630 kg/ha
  ORYSAT herbicidal rating: 6.0
[7]; rate 0.0158 kg/ha
  TRZAWR herbicidal rating: 4.0
[7]; rate 0.0315 kg/ha
  TRZAWR herbicidal rating: 7.0
[7]; rate 0.0630 kg/ha
  TRZAWR herbicidal rating: 7.0
[8]; rate 0.0156 kg/ha
  Preemergence herbicidal rating ABUTH: 2.0
[8]; rate 0.0313 kg/ha
  Preemergence herbicidal rating ABUTH: 9.0
[8]; rate 0.0625 kg/ha
  Preemergence herbicidal rating ABUTH: 9.0
[8]; rate 0.1250 kg/ha
  Preemergence herbicidal rating ABUTH: 9.0
[8]; rate 0.2500 kg/ha
  Preemergence herbicidal rating ABUTH: 9.0
[9]; rate 0.0156 kg/ha
  Preemergence herbicidal rating CASOB: 0.0
[9]; rate 0.0313 kg/ha
  Preemergence herbicidal rating CASOB: 0.0
[9]; rate 0.0625 kg/ha
  Preemergence herbicidal rating CASOB: 1.0
[9]; rate 0.1250 kg/ha
  Preemergence herbicidal rating CASOB: 1.0
[9]; rate 0.2500 kg/ha
  Preemergence herbicidal rating CASOB: 2.0
[10]; rate 0.0156 kg/ha
  Preemergence herbicidal rating SETVI: 0.0
[10]; rate 0.0313 kg/ha
  Preemergence herbicidal rating SETVI: 1.0
[10]; rate 0.0625 kg/ha
  Preemergence herbicidal rating SETVI: 2.0
[10]; rate 0.1250 kg/ha
  Preemergence herbicidal rating SETVI: 7.0
[10]; rate 0.2500 kg/ha
  Preemergence herbicidal rating SETVI: 9.0
[11]; 0.0313 kg/ha
  MOOVA herbicidal effect rating: 9.0
[11]; 0.0625 kg/ha
  MOOVA herbicidal effect rating: 9.0
[11]; 0.1250 kg/ha
  MOOVA herbicidal effect rating: 9.0
[11]; 0.2500 kg/ha
  MOOVA herbicidal effect rating: 9.0
[12]; 0.0313 kg/ha
  SAGPY herbicidal effect rating: 2.0
[12]; 0.0625 kg/ha
  SAGPY herbicidal effect rating: 4.0
[12]; 0.1250 kg/ha
  SAGPY herbicidal effect rating: 5.0
[12]; 0.2500 kg/ha
  SAGPY herbicidal effect rating: 7.0
[13]; Rate 0.0313 kg/ha
  Herbicidal rating CYPIR: 6.0
[13]; Rate 0.0625 kg/ha
  Herbicidal rating CYPIR: 7.0
[13]; Rate 0.1250 kg/ha
  Herbicidal rating CYPIR: 7.0
[13]; Rate 0.2500 kg/ha
  Herbicidal rating CYPIR: 8.0
[14]; Rate 0.0313 kg/ha
  Herbicidal rating SAGPY: 2.0
[14]; Rate 0.0625 kg/ha
  Herbicidal rating SAGPY: 4.0
[14]; Rate 0.1250 kg/ha
  Herbicidal rating SAGPY: 5.0
[14]; Rate 0.2500 kg/ha
  Herbicidal rating SAGPY: 7.0

Reference: patent US20020137929A1, “1 - (3-heterocyclylphenyl) isothiourea, -isourea, -guanidine and -amidine herbicidal agents” (Intellectual Property Department, BASF Aktiengesellschaft, priority 1998, published 2002)
